Data: patent US8148391B2 (Cephalon, Inc., priority 2006, dated 2012)
pIC50: −log10 of the molar value. Where two headings read alike, the source gives them in different places. One block for each compound: values may come before it.

Tests used:
[1] = target: T1, c-Met (cytoplasmic domain) (Homo sapiens, UniProt P08581); assay: c-Met Kinase Assay (same methods as for ALK, with modifications); format: biochemical
T1 construct: 10 ng/mL c-Met (cytoplasmic domain, Invitrogen Corporation #PV3143); purchased Invitrogen Corporation PV3143
Method: Briefly, each 96-well plate was coated with 100 μL/well of 10 μg/mL substrate (phospholipase C-γ) in Tris-buffered saline (TBS). […] The reaction was initiated by adding enzyme (30 ng/ml ALK) and was allowed to proceed at 37° C. for 15 minutes. Detection of the phosphorylated product was performed by adding 100 μl/well of Eu-N1 labeled PT66 antibody (Perkin Elmer # AD0041).
Data analysis was performed using ActivityBase (IDBS, Guilford, UK). IC50 values were calculated by plotting percent inhibition versus log10 of the concentration of compound and fitting to the nonlinear regression sigmoidal dose-response (variable slope) equation in XLFit (IDBS, Guilford, UK).
Reactions were initiated with 10 ng/mL c-Met (cytoplasmic domain, Invitrogen Corporation #PV3143).

[2] = target: T2, baculovirus-expressed ALK (Homo sapiens, UniProt Q9UM73); assay: ALK Kinase Assay (ELISA-type, time-resolved fluorescence); format: biochemical
T2 construct: host or cells: baculovirus expression system
Procedure, shortened: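 Substrate coating: phospholipase C-γ, 10 μg/mL in TBS. Kinase step: 30 ng/ml ALK, 15 min, 37° C. Detection and analysis: Eu-N1 PT66 antibody, with IC50 fitted as a sigmoidal variable-slope dose-response curve.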

[3] = 1 μM ATP (Km level), read-out: cMet Activity (c-Met Kinase Inhibition, IC50)
[4] = 1 μM ATP (Km level), read-out: ALK Activity (ALK Kinase Inhibition, IC50)
[5] = 1 μM ATP (Km level), 10 ng/mL c-Met, read-out: cMet Activity (c-Met kinase inhibition, IC50 class)
[6] = 1 μM ATP (Km level), 30 ng/ml ALK, 37° C., 15 minutes, read-out: ALK Activity (ALK kinase inhibition, IC50 class)
[7] = c-Met kinase inhibition, 1 μM ATP (Km level), read-out: cMet Activity
[8] = ALK kinase inhibition, 1 μM ATP (Km level), read-out: ALK Activity
[9] = c-Met kinase inhibition, 1 μM ATP, read-out: cMet Activity
[10] = ALK kinase inhibition, 1 μM ATP, read-out: ALK Activity

T2 sequence (Q9UM73 19-1620): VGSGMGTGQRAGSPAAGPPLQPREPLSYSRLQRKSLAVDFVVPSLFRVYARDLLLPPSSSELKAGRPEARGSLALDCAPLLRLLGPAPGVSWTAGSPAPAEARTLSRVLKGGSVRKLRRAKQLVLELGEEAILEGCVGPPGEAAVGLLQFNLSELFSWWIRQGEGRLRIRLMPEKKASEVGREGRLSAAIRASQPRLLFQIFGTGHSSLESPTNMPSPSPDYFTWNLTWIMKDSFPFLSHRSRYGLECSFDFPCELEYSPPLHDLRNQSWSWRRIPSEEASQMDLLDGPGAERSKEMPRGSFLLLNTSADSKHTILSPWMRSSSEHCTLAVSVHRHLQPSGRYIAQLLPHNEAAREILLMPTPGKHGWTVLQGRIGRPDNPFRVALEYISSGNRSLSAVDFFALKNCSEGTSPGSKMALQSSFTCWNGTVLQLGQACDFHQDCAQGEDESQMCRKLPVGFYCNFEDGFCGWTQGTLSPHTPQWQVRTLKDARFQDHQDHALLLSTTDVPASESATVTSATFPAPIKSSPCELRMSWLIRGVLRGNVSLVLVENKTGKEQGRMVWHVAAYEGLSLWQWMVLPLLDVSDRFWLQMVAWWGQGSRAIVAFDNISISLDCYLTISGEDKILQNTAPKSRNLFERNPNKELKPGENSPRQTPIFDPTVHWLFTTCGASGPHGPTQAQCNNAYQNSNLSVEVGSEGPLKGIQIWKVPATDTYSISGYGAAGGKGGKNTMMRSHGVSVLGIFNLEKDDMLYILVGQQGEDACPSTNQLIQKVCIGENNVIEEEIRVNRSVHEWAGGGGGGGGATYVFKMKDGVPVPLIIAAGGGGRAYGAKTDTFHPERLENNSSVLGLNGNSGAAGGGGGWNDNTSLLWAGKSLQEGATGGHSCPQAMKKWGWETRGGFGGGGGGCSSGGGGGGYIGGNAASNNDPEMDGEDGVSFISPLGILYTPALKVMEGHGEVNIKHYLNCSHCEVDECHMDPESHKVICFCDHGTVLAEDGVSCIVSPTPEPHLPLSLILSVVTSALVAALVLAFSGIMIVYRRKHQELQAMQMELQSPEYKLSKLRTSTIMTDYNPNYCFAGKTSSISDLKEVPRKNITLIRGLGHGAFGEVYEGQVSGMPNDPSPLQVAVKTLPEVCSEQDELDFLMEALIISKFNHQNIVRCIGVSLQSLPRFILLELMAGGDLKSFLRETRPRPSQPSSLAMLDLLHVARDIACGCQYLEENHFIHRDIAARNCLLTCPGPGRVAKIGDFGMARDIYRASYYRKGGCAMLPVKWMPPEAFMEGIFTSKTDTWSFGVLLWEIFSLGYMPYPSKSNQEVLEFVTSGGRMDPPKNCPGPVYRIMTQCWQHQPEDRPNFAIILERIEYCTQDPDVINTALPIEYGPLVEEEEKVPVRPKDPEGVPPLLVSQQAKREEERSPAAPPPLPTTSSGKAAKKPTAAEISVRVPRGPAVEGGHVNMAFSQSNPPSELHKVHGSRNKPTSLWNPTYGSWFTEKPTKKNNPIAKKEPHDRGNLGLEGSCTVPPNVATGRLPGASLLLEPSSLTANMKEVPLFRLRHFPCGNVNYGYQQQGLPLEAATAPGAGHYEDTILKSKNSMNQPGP
T1 sequence (P08581 956-1390 limits assumed): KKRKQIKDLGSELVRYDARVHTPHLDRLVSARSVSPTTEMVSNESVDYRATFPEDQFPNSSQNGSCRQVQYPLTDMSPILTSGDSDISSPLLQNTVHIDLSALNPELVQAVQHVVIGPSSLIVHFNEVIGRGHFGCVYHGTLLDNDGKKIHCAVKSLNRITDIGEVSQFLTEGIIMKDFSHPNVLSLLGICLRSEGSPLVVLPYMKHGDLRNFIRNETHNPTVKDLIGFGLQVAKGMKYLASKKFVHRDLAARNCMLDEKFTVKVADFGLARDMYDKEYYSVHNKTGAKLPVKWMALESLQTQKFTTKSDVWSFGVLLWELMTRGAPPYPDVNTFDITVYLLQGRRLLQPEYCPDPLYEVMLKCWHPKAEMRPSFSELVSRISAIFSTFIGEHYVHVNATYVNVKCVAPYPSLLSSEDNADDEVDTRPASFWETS

pIC50 [1, 3]: < 5.00
pIC50 [2, 4]: > 7.00
Compound: COc1c(Nc2ncc(Cl)c(N[C@H]3[C@@H](C(N)=O)[C@@H]4C=C[C@H]3C4)n2)ccc2c1CCC(=O)CC2 [Example 869, (1S,2S,3R,4R)-3-[5-Chloro-2-(1-methoxy-7-oxo-6,7,8,9-tetrahydro-5H-benzocyclohepten-2-ylamino)-pyrimidin-4-ylamino]-bicyclo[2.2.1]hept-5-ene-2-carboxylic acid amide]

pIC50 [1, 5]: 5.00 to 6.00
pIC50 [2, 6]: 6.00 to 7.00
Compound: COc1cc2c(cc1Nc1ncc(Cl)c(Nc3cc(C(N)=O)ccc3OC)n1)CCN(CC(=O)N(C)C)CC2 [Example 1136, 3-[5-Chloro-2-(3-dimethylcarbamoylmethyl-8-methoxy-2,3,4,5-tetrahydro-1H-benzo[d]azepin-7-ylamino)-pyrimidin-4-ylamino]-4-methoxy-benzamide]

pIC50 [1, 3]: < 5.00
pIC50 [2, 4]: > 7.00
Compound: COc1cc2c(cc1Nc1ncc(Cl)c(Nc3ccccc3S(=O)(=O)N3CC[C@@H](N(C)C)C3)n1)CCN(CC(=O)N(C)C)CC2 [Example 845, 2-(7-{5-Chloro-4-[2-((R)-3-dimethylamino-pyrrolidine-1-sulfonyl)-phenylamino]-pyrimidin-2-ylamino}-8-methoxy-1,2,4,5-tetrahydro-benzo[d]azepin-3-yl)-N,N-dimethyl-acetamide]

pIC50 [1, 9]: 6.00 to 7.00
pIC50 [2, 10]: > 7.00
Compound: CN1Cc2cc(Nc3ncc(Cl)c(Nc4cccc5c4OC(F)(F)O5)n3)ccc2CCC1=O [Example 1803, 8-[5-Chloro-4-(2,2-difluoro-benzo[1,3]dioxol-4-ylamino)-pyrimidin-2-ylamino]-2-methyl-1,2,4,5-tetrahydro-benzo[c]azepin-3-one]

pIC50 [1, 5]: 5.00 to 6.00
pIC50 [2, 6]: 6.00 to 7.00
Compound: O=C1CCCc2ccc(Nc3ncc(Cl)c(Nc4c(F)cccc4OC4CCOCC4)n3)cc2N1 [Example 1281, 8-{5-Chloro-4-[2-fluoro-6-(tetrahydro-pyran-4-yloxy)-phenylamino]-pyrimidin-2-ylamino}-1,3,4,5-tetrahydro-1-benzazepin-2-one]

pIC50 [1, 7]: < 5.00
pIC50 [2, 8]: > 7.00
Compound: COc1cc2c(cc1Nc1ncc(Cl)c(Nc3ccc(N4CCOCC4)cc3OC)n1)N(C)CCN(S(C)(=O)=O)C2 [Example 494, 5-Chloro-N*2*-(4-methanesulfonyl-7-methoxy-1-methyl-2,3,4,5-tetrahydro-1H-benzo[e][1,4]diazepin-8-yl)-N*4*-(2-methoxy-4-morpholin-4-yl-phenyl)-pyrimidine-2,4-diamine]

pIC50 [1, 3]: > 7.00
pIC50 [2, 4]: > 7.00
Compound: CNC(=O)c1ccccc1Nc1nc(Nc2ccc3c(c2)CCC(NCC(F)F)CC3)ncc1Cl (stereo not shown) [Example 660, 2-{5-Chloro-2-[7-(2,2-difluoro-ethylamino)-6,7,8,9-tetrahydro-5H-benzocyclohepten-2-ylamino]-pyrimidin-4-ylamino}-N-methyl-benzamide]

pIC50 [1, 7]: 5.00 to 6.00
pIC50 [2, 8]: > 7.00
Compound: CC1(C)CCC(=O)Nc2ccc(Nc3ncc(Cl)c(N[C@@H]4CCCC[C@H]4NS(C)(=O)=O)n3)cc21 [Example 383, N-{(1R,2R)-2-[5-Chloro-2-(5,5-dimethyl-2-oxo-2,3,4,5-tetrahydro-1H-benzo[b]azepin-7-ylamino)-pyrimidin-4-ylamino]-cyclohexyl}-methanesulfonamide]

pIC50 [1, 7]: 5.00 to 6.00
pIC50 [2, 8]: > 7.00
Compound: CC(C)(F)CN1CCc2ccc(Nc3ncc(Cl)c(N[C@@H]4CCCC[C@H]4NS(C)(=O)=O)n3)cc2CC1 [Example 40, N-((1R,2R)-2-{5-Chloro-2-[3-(2-fluoro-2-methyl-propyl)-2,3,4,5-tetrahydro-1H-benzo[d]azepin-7-ylamino]-pyrimidin-4-ylamino}-cyclohexyl)-methanesulfonamide]

pIC50 [1, 7]: 5.00 to 6.00
pIC50 [2, 8]: > 7.00
Compound: CCOCn1ccnc1-c1ccccc1Nc1nc(Nc2ccc3c(c2)CCN(CCOC)CC3)ncc1Cl [Example 222, 5-Chloro-N*4*-[2-(1-ethoxymethyl-1H-imidazol-2-yl)-phenyl]-N*2*-[3-(2-methoxy-ethyl)-2,3,4,5-tetrahydro-1H-benzo[d]azepin-7-yl]-pyrimidine-2,4-diamine]

pIC50 [1, 3]: < 5.00
pIC50 [2, 4]: > 7.00
Compound: COc1cc2c(cc1Nc1ncc(Cl)c(Nc3ccc(N4CCN(C)CC4)c(C)c3)n1)CCN(CC(=O)N(C)C)CC2 [Example 792, 2-(7-{5-Chloro-4-[3-methyl-4-(4-methyl-piperazin-1-yl)-phenylamino]-pyrimidin-2-ylamino}-8-methoxy-1,2,4,5-tetrahydro-benzo[d]azepin-3-yl)-N,N-dimethyl-acetamide]

pIC50 [1, 5]: < 5.00
pIC50 [2, 6]: > 7.00
Compound: COc1cc2c(cc1Nc1ncc(Cl)c(N[C@@H]3CCCC[C@H]3NS(C)(=O)=O)n1)CCC(NCC(F)F)CC2 (single isomer, unassigned) [Example 1058]

More lines, now with the values behind:

Compound: CCN1C(=O)CCCc2cc(Nc3ncc(Cl)c(N[C@@H]4CCCC[C@H]4NS(C)(=O)=O)n3)c(OC)cc21 [Example 130, N-{(1R,2R)-2-[5-Chloro-2-(1-ethyl-8-methoxy-2-oxo-2,3,4,5-tetrahydro-1H-benzo[b]azepin-7-ylamino)-pyrimidin-4-ylamino]-cyclohexyl}-methanesulfonamide]
pIC50 [1, 7]: < 5.00
pIC50 [2, 8]: > 7.00

Compound: COc1c(Nc2ncc(Cl)c(N[C@@H]3CCCC[C@H]3NS(C)(=O)=O)n2)ccc2c1CCC(NCCO)CC2 (single isomer, unassigned) [Example 698]
pIC50 [1, 3]: < 5.00
pIC50 [2, 4]: > 7.00

Compound: COc1cc2c(cc1Nc1ncc(Cl)c(Nc3ccc(N(C)C)cc3OC)n1)CCN(Cc1ncco1)CC2 [Example 1172, 5-Chloro-N*4*-(4-dimethylamino-2-methoxy-phenyl)-N*2*-(8-methoxy-3-oxazol-2-ylmethyl-2,3,4,5-tetrahydro-1H-benzo[d]azepin-7-yl)-pyrimidine-2,4-diamine]
pIC50 [1, 5]: < 5.00
pIC50 [2, 6]: > 7.00

Compound: CNc1nc(OC)ccc1Nc1nc(Nc2cc3c(cc2OC)CCN(CC(=O)N(C)C)CC3)ncc1Cl [Example 1208, 2-{7-[5-Chloro-4-(6-methoxy-2-methylamino-pyridin-3-ylamino)-pyrimidin-2-ylamino]-8-methoxy-1,2,4,5-tetrahydro-benzo[d]azepin-3-yl}-N,N-dimethyl-acetamide]
pIC50 [1, 5]: < 5.00
pIC50 [2, 6]: > 7.00

Compound: C#CCNC(=O)c1sccc1Nc1nc(Nc2ccc3c(c2)NC(=O)CCC3(C)C)ncc1Cl [Example 1623, 3-[5-Chloro-2-(5,5-dimethyl-2-oxo-2,3,4,5-tetrahydro-1H-benzo[b]azepin-8-ylamino)-pyrimidin-4-ylamino]-thiophene-2-carboxylic acid prop-2-ynylamide]
pIC50 [1, 9]: < 5.00
pIC50 [2, 10]: 6.00 to 7.00

Compound: CN1C(=O)CCC(C)(C)c2cc(Nc3ncc(Cl)c(N[C@@H]4CCCC[C@H]4N(C)S(C)(=O)=O)n3)ccc21 [Example 1680, N-{(1R,2R)-2-[5-Chloro-2-(1,5,5-trimethyl-2-oxo-2,3,4,5-tetrahydro-1H-benzo[b]azepin-7-ylamino)-pyrimidin-4-ylamino]-cyclohexyl}-N-methyl-methanesulfonamide]
pIC50 [1, 9]: 6.00 to 7.00
pIC50 [2, 10]: > 7.00

Compound: COCCOc1cccc(F)c1Nc1nc(Nc2ccc3c(c2)NC(=O)CCC3)ncc1Cl [Example 1695, 8-{5-Chloro-4-[2-fluoro-6-(2-methoxy-ethoxy)-phenylamino]-pyrimidin-2-ylamino}-1,3,4,5-tetrahydro-benzo[b]azepin-2-one]
pIC50 [1, 9]: 6.00 to 7.00
pIC50 [2, 10]: 6.00 to 7.00

Compound: CCN1CCN(CC)c2cc(Nc3ncc(Cl)c(Nc4ccccc4NS(C)(=O)=O)n3)ccc2C1 [Example 425, N-{2-[5-Chloro-2-(1,4-diethyl-2,3,4,5-tetrahydro-1H-benzo[e][1,4]diazepin-8-ylamino)-pyrimidin-4-ylamino]-phenyl}-methanesulfonamide]
pIC50 [1, 7]: 6.00 to 7.00
pIC50 [2, 8]: > 7.00

Compound: CN(C)S(=O)(=O)c1ccccc1Nc1nc(Nc2ccc3c(c2)CCN(CC2COCCO2)CC3)ncc1Cl (stereo not shown) [Example 641, 2-[5-Chloro-2-(3-[1,4]dioxan-2-ylmethyl-2,3,4,5-tetrahydro-1H-benzo[d]azepin-7-ylamino)-pyrimidin-4-ylamino]-N,N-dimethyl-benzenesulfonamide]
pIC50 [1, 3]: > 7.00
pIC50 [2, 4]: > 7.00

Compound: CNC(=O)c1cccc(O)c1Nc1nc(Nc2ccc3c(c2)CCN(CCOC)CC3)ncc1Cl [Example 1227, 2-{5-Chloro-2-[3-(2-methoxy-ethyl)-2,3,4,5-tetrahydro-1H-3-benzazepin-7-ylamino]-pyrimidin-4-ylamino}-3-hydroxy-N-methyl-benzamide]
pIC50 [1, 5]: 6.00 to 7.00
pIC50 [2, 6]: 6.00 to 7.00

Compound: CCN1C(=O)C(C)(C)CCc2c1ccc(Nc1ncc(Cl)c(NC3C4C=CC(C4)C3C(N)=O)n1)c2OC (stereo not drawn) [Example 142, (2-exo, 3-exo)-3-[5-Chloro-2-(1-ethyl-6-methoxy-3,3-dimethyl-2-oxo-2,3,4,5-tetrahydro-1H-benzo[b]azepin-7-ylamino)-pyrimidin-4-ylamino]-bicyclo[2.2.1]hept-5-ene-2-carboxylic acid amide]
pIC50 [1, 7]: < 5.00
pIC50 [2, 8]: > 7.00
